Assay results published in ChEMBL document CHEMBL4130357, “Developing potential agents against atherosclerosis: Design, synthesis and pharmacological evaluation of novel dual inhibitors of oxidative stress and Squalene Synthase activity” (Eur J Med Chem, 2017).
Active and inactive are the calls of the source. No cut-off for these calls is given here.

How the values were obtained:
[1] = test system: Liver; experiment: Antioxidant activity in heat-inactivated Fischer-344 rat hepatic microsomes assessed as protection against Fe2+/ascorbate-induced lipid peroxidation after 45 mins by TBAR-based spectrophotometry; format: functional, microsome; conditions: Fischer-344, Liver, 0.75 h
[2] = Antioxidant activity assessed as DPPH radical scavenging activity measured at 30 to 60 mins by UV-Visible spectrophotometric method; format: functional
[3] = target: T1, Squalene synthase (Rattus norvegicus, UniProt Q02769); experiment: Inhibition of SQS in rat microsomes using [3H]-FPP as substrate preincubated for 10 mins followed by substrate addition measured after 30 mins by scintillation counting
T1 sequence (Q02769 whole entry): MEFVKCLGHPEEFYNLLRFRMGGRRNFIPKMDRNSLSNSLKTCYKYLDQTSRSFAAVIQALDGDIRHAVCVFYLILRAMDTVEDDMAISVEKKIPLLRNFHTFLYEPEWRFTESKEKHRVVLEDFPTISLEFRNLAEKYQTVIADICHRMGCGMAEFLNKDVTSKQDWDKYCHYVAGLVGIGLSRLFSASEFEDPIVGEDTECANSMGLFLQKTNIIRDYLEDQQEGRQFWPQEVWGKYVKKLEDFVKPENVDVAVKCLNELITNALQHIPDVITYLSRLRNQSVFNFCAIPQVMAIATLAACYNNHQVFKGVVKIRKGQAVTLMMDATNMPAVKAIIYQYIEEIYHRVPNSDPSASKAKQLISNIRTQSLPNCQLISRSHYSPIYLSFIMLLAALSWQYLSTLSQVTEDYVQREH

[4] = test system: Mus musculus; experiment: Anti-diabetic activity in HDF/STZ-induced obesity-diabetes type 2 SKH-2 mouse model assessed as reversal of body weight gain at 56 umol/kg, ip administered twice daily until 23 days measured once per week; format: functional, organism-based
[5] = test system: Mus musculus; experiment: Anti-diabetic activity in HDF/STZ-induced obesity-diabetes type 2 SKH-2 mouse model assessed as reversal of body weight gain at 56 umol/kg, ip administered twice daily until 53 days measured once per week from 28th to 53 day post STZ challenge; format: functional, organism-based
[6] = test system: Mus musculus; experiment: Antihypercholesterolemic activity in HDF/STZ-induced obesity-diabetes type 2 SKH-2 mouse model assessed as increase in plasma HDL levels at 56 umol/kg, ip administered twice daily measured on day 22 and day 53 relative to untreated control; format: functional, organism-based
[7] = test system: Mus musculus; experiment: Antihypercholesterolemic activity in HDF/STZ-induced obesity-diabetes type 2 SKH-2 mouse model assessed as decrease in plasma total cholestrol levels at 56 umol/kg, ip administered twice daily measured on day 22 and day 53 relative to untreated control; format: functional; design: scale not given: the % may be the effect or the level left
[8] = test system: Mus musculus; experiment: Antihyperlipidemic activity in HDF/STZ-induced obesity-diabetes type 2 SKH-2 mouse model assessed as decrease in plasma triglyceride levels at 56 umol/kg, ip administered twice daily measured on day 22 and day 53 relative to untreated control; format: functional
[9] = test system: Mus musculus; experiment: Antihyperlipidemic activity in HDF/STZ-induced obesity-diabetes type 2 SKH-2 mouse model assessed as decrease in plasma LDL levels at 56 umol/kg, ip administered twice daily measured on day 22 and day 53 relative to untreated control; format: functional; design: scale not given: the % may be the effect or the level left
[10] = test system: Mus musculus; experiment: Antihyperlipidemic activity in HDF/STZ-induced obesity-diabetes type 2 SKH-2 mouse model assessed as increase in plasma HDL/LDL ratio at 56 umol/kg, ip administered twice daily measured on day 22 and day 53 relative to untreated control; format: functional
[11] = target: T2, Prostaglandin G/H synthase 1 (Ovis aries) (UniProt P05979); experiment: Inhibition of ovine COX1 at 50 uM using arachidonic acid as substrate by ELISA
T2 sequence (whole entry): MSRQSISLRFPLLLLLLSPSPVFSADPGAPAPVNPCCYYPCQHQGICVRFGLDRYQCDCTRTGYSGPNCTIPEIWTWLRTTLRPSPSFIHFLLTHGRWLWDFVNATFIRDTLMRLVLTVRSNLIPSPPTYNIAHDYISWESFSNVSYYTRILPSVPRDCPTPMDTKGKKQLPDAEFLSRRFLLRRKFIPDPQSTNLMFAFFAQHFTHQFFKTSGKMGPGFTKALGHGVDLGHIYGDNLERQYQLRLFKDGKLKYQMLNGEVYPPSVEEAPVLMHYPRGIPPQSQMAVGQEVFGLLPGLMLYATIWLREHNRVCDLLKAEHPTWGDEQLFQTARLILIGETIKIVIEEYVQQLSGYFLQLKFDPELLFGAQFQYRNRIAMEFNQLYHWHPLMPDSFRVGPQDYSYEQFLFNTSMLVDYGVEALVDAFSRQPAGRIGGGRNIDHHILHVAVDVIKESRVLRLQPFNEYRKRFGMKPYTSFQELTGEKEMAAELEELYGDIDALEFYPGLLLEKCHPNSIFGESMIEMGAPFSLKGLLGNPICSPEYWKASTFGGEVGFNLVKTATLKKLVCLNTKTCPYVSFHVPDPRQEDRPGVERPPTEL

[12] = target: T3, Prostaglandin G/H synthase 2 (Homo sapiens) (UniProt P35354); experiment: Inhibition of recombinant human COX2 at 50 uM using arachidonic acid as substrate by ELISA
T3 sequence (whole entry): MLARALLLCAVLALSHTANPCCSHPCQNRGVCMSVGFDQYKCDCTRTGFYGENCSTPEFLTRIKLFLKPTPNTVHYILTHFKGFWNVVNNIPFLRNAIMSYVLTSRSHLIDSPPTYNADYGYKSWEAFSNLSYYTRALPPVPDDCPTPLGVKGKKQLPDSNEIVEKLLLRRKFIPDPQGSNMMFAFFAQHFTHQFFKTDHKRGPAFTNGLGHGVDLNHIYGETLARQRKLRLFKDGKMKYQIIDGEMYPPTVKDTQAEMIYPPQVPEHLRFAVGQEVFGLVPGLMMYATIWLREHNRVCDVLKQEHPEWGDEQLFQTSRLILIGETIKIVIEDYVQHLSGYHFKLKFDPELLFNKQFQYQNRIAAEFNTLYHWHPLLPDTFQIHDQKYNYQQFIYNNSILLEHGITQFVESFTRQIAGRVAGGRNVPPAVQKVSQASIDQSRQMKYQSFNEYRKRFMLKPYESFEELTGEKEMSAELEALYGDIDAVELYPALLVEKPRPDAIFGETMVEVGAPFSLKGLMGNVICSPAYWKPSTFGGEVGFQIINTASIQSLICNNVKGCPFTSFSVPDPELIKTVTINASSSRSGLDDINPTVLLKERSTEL

[13] = test system: Mus musculus; experiment: Anti-diabetic activity in HDF/STZ-induced obesity-diabetes type 2 SKH-2 mouse model assessed as reversal of glucose increase at 56 umol/kg, ip administered twice daily until 53 days measured every 5 to 10 days from day 27 to 53; format: functional, organism-based
[14] = target: T2, Prostaglandin G/H synthase 1 (Ovis aries); experiment: Inhibition of ovine COX1 at 20 uM using arachidonic acid as substrate by ELISA

Compound `CN1CC(O)(c2ccccc2)Oc2ccccc21` (centres undefined) has an IC50 [1] of 7.6 µM, an IC50 [2] of 152 µM and an IC50 [3] of 50 µM.

For `CN1CCOC(O)(c2ccc(/C=C/c3ccccc3)cc2)C1` (centres undefined), the IC50 [1] was 110 µM, the IC50 [2] was greater than 400 µM and the IC50 [3] was 7 µM.

`CN1CC(O)(c2ccc(-c3ccccc3)cc2)OC2CCCCC21` (centres undefined) showed an IC50 [1] of 450 µM and an IC50 [2] greater than 400 µM.

Compound `Oc1ccc(/C=C/c2cc(O)cc(O)c2)cc1` [RESVERATROL] has an IC50 [1] of 15 µM, an IC50 [2] of 96 µM and an IC50 [3] greater than 50 µM.

In the case of `CN1CC(O)(c2ccc(-c3cc(C(C)(C)C)c(O)c(C(C)(C)C)c3)cc2)OC2CCCCC21` (centres undefined), the IC50 [1] is reported as 5.9 µM, the IC50 [2] is reported as greater than 400 µM and the Activity [4] is reported as “Active”. For the same compound, the Activity [5] was “Active”, the Activity [6] was “inactive” and the Activity [7] was 70%. For the same compound, the Activity [8] was “inactive”, the Activity [9] was 95% and the “fold change (FC)” value [10] was 7.5.

For `CN1CC(O)(c2ccc(/C=C/c3ccccc3)cc2)OC2CCCCC21` (centres undefined), the IC50 [1] was 45 µM, the IC50 [2] was greater than 400 µM and the inhibition [11] was “inactive”. The inhibition [12] was “inactive”.

Compound `CN1CC(O)(c2ccc(-c3ccccc3)cc2)Oc2ccc(-c3ccccc3)cc21` (centres undefined) has an IC50 [1] of 4.9 µM, an IC50 [2] greater than 400 µM and an IC50 [3] greater than 50 µM.

Compound `CN1CC(O)(c2ccc(-c3ccc(O)cc3)cc2)Sc2ccccc21` (centres undefined) has an IC50 [1] of 15 µM, an IC50 [2] of 44 µM and an IC50 [3] of 8.5 µM.

Work on `CSc1ccccc1N(C)CC(=O)c1ccc(-c2ccccc2)cc1` yielded an IC50 [1] greater than 1000 µM, an IC50 [2] greater than 400 µM and an IC50 [3] greater than 50 µM.

Compound `OC1(c2ccc(-c3ccccc3)cc2)CN2CCCCC2CO1` (centres undefined) has an IC50 [1] of 350 µM, an IC50 [2] greater than 400 µM and an IC50 [3] of 35 µM.

Compound `CC(C)(Sc1cc(C(C)(C)C)c(O)c(C(C)(C)C)c1)Sc1cc(C(C)(C)C)c(O)c(C(C)(C)C)c1` [PROBUCOL] has an IC50 [1] greater than 1000 µM and an IC50 [2] of 234 µM.

`CN1CC(O)(c2ccc(-c3cc(C(C)(C)C)c(O)c(C(C)(C)C)c3)cc2)Sc2ccccc21` (centres undefined) showed an IC50 [1] of 6.5 µM, an IC50 [2] of 34 µM and an IC50 [3] greater than 50 µM. The inhibition [11] was “inactive”, the inhibition [12] was “inactive” and the Activity [4] was “inactive”. The Activity [6] was “inactive”, the Activity [13] was “inactive” and the Activity [7] was 31%. The Activity [8] was 55%, the Activity [9] was 65% and the “fold change (FC)” value [10] was 3.

For `CN1CC(O)(c2ccc(-c3ccc(C(F)(F)F)cc3)cc2)Sc2ccccc21` (centres undefined), the IC50 [1] was 14 µM, the IC50 [2] was 171 µM and the IC50 [3] was 14 µM.

Compound `CN1CC(O)(c2ccc(-c3ccccc3)cc2)SC2CCCCC21` (centres undefined) has an IC50 [1] of 83 µM, an IC50 [2] of 271 µM and an IC50 [3] of 16.5 µM. For the same compound, the inhibition [14] was 89%.

Compound `CN1CCOC(O)(c2ccc(-c3ccccc3)cc2)C1` (centres undefined) has an IC50 [1] of 300 µM, an IC50 [2] greater than 400 µM and an IC50 [3] of 33 µM. For the same compound, the inhibition [11] was 38% and the inhibition [12] was 100%.

In the case of `OC1(c2ccc(/C=C/c3ccccc3)cc2)CN2CCCCC2CO1` (centres undefined), the IC50 [1] is reported as 42 µM, the IC50 [2] is reported as greater than 400 µM and the inhibition [11] is reported as “inactive”. For the same compound, the inhibition [12] was “inactive”.

For `CN1CC(O)(c2ccccc2)Sc2ccccc21` (centres undefined), the IC50 [1] was 8.2 µM, the IC50 [2] was 183 µM and the IC50 [3] was 28 µM.
